Where two headings read alike, the source gives them in different places.
How the values were obtained:
[1] = SPR binding of NVA1309 to immobilized P4-derived peptides, RU400 as % of peptide P4; settings: for % BINDING (RU400) 0.5 mM: NVA1309 0.5 mM; for % BINDING (RU400) 1 mM: NVA1309 1 mM; for % BINDING (RU400) 2 mM: NVA1309 2 mM; for % BINDING (RU400) mean: mean of 0.5, 1 and 2 mM NVA1309; for NVA1309 binding to the peptide, in words: compared with peptide P4
Protocol: (§1) This peptide was covalently coupled via the carboxy-terminal cysteine to the surface (FC2) of a Biacore CM5 optical sensor chip as described in Example 4 following the Biacore thiol coupling procedure. Compound NVA1309 was injected as analyte at increasing concentrations and the binding reaction was monitored by generation of real time sensorgrams, presented as subtracted curves from the blank FC1 dextran reference surface (FIGS. 14A & 14B).
Sensorgram running conditions were: • Compound stock solution: 50 mM, Dimethyl sulfoxide (DMSO) • Compound working dilution: 0.5-2 mM • Running buffer: HBS-P • Flow rate: 30 μl/min
This peptide was covalently coupled via the carboxy-terminal cysteine to the surface (FC3) of a new Biacore CM5 optical sensor chip using the Biacore thiol coupling procedure. Peptide P4 was immobilized on FC2 as a positive reference control, flow cell FC1 was left blank as negative background binding reference. Compound NVA1309 was injected as analyte at increasing concentrations and the binding reaction was monitored by generation of real time sensorgrams as described in the previous examples and presented as subtracted curves from the blank FC1 dextran reference surface.
A series of three concentration SPR binding experiments were carried out with peptides derived from the peptide P4 sequence (SEQ ID No. 7). These peptides were designed in order to determine the significance of single peptide 4-contained (P4) amino acid residues in binding compound NVA1309. The following peptides were prepared:
Synthetic peptides were covalently coupled to optical sensor chips via the terminal cysteines following the Biacore thiol coupling procedure and SPR binding experiments were run exactly under the same conditions as described in the previous examples. Relative binding strengths of the single peptides were read from three concentration RU400 values and calculated as percentage binding of the peptide P4 reference (P4: RU400=100%). […]

[2] = target: T1, truncated recombinant α2δ-1 protein, Construct 2 (SEQ ID No. 3) (Homo sapiens, UniProt P54289); experiment: SPR binding of analyte to immobilized truncated α2δ-1 construct 2; settings: RU400, subtracted from human IgG reference; NVA1309 at increasing concentrations, pregabalin at 500 μM
T1 construct: His tag; GST; made in house; host or cells: CHO cells (transient expression)
T1 sequence (P54289 with tags, fused parts or gaps): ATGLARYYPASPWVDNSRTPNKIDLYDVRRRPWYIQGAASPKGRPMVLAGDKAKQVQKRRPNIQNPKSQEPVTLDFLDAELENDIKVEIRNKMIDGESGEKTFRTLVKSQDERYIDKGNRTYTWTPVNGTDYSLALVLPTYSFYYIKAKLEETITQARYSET
Protocol: Binding experiments were carried out using Surface Plasmon Resonance (SPR) technology in a Biacore instrument. Recombinant construct 1 and construct 2 were immobilized on the surface of two different flow cells (FC2 and FC3, respectively) of a Biacore CM5 optical sensor chip by covalent amine coupling chemistry, using the Biacore amine coupling kit and following the Biacore amine coupling protocol. Human IgG was immobilized to the reference flow cell FC1 as intra-assay background binding control.

[3] = target: truncated recombinant α2δ-1 protein, Construct 1 (SEQ ID No. 2) (Homo sapiens, UniProt P54289); experiment: SPR binding of analyte to immobilized truncated α2δ-1 construct 1; settings: RU400, subtracted from human IgG reference; NVA1309 at increasing concentrations, pregabalin at 500 μM
Chain of truncated recombinant α2δ-1 protein, Construct 1 (SEQ ID No. 2) (P54289 with tags, fused parts or gaps): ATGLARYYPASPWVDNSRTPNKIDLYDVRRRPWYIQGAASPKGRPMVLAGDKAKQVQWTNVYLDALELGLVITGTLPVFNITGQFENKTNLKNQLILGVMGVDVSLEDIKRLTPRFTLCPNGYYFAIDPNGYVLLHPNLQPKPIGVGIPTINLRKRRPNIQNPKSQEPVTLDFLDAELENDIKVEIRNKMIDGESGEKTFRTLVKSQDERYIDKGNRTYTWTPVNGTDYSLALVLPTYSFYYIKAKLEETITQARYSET

α2δ-1 = settings: partial sciatic ligation neuropathy, α2δ-1−/− mice; cited from earlier work
[4] = target: T2, α2δ-1 (RRR mutated to RRA) (Mus musculus, UniProt O08532, R241A); settings: knock-in mutant mouse; cited from earlier work
T2 construct: host or cells: knock-in mutant mouse (in vivo)
T2 sequence (O08532 25-1103 R241A): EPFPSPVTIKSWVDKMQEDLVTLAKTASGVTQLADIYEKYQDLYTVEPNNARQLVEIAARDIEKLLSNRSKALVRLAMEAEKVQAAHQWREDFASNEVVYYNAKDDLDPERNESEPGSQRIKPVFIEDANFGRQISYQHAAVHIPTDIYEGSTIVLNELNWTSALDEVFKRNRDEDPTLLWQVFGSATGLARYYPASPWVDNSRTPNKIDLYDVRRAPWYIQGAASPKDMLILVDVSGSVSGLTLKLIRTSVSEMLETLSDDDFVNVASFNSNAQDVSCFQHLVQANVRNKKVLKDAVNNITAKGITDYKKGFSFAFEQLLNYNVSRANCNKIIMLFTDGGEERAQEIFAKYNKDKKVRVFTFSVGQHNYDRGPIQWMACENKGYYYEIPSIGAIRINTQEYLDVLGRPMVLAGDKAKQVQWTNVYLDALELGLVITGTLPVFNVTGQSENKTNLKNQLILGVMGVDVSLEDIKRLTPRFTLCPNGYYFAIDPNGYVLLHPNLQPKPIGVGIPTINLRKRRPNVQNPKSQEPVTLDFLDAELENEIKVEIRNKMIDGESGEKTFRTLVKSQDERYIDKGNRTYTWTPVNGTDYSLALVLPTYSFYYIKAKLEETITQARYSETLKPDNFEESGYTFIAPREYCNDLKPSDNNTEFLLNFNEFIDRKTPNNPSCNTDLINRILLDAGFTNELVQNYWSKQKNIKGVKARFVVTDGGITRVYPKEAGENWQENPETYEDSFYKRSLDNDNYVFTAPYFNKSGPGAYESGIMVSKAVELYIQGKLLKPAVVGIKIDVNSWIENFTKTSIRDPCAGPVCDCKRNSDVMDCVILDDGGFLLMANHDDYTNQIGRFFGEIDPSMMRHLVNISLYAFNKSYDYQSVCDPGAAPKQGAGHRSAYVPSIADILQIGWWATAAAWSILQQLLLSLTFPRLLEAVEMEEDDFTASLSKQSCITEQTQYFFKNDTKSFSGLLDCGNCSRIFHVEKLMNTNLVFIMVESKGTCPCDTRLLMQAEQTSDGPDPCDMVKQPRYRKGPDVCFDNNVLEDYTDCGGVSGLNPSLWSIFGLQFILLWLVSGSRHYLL
T2 sequence (O08532 958-1103 partner limits assumed): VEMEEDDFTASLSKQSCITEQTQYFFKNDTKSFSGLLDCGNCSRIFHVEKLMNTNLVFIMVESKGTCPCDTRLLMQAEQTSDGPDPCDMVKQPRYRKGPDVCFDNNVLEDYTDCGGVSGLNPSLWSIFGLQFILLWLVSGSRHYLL

[5] = target: Peptide 1 (P1; SEQ ID No. 4) comprising the gabapentin/pregabalin binding site of α2δ-1 (Homo sapiens, UniProt P54289); experiment: SPR binding to immobilized synthetic peptide P1; settings: RU400, subtracted from blank dextran reference
Chain of Peptide 1 (P1; SEQ ID No. 4) comprising the gabapentin/pregabalin binding site of α2δ-1 (P54289 with tags, fused parts or gaps limits assumed): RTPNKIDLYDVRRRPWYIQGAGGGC
Protocol: Thiol coupling allows for uniform surface presentation of the immobilized peptide molecules and provides freedom to adopt a steric conformation that is determined by the amino acid sequence of the peptide.
Sensorgram running conditions were: • Compound stock solution: 50 mM, DMSO • Compound working stock dilution: 0.5-2 mM • Running buffer: HBS-P • Flow rate: 30 μl/min

[6] = target: human voltage-gated calcium channel subunit α2δ-1 (Homo sapiens, UniProt P54289)
Chain of human voltage-gated calcium channel subunit α2δ-1 (P54289 25-1103): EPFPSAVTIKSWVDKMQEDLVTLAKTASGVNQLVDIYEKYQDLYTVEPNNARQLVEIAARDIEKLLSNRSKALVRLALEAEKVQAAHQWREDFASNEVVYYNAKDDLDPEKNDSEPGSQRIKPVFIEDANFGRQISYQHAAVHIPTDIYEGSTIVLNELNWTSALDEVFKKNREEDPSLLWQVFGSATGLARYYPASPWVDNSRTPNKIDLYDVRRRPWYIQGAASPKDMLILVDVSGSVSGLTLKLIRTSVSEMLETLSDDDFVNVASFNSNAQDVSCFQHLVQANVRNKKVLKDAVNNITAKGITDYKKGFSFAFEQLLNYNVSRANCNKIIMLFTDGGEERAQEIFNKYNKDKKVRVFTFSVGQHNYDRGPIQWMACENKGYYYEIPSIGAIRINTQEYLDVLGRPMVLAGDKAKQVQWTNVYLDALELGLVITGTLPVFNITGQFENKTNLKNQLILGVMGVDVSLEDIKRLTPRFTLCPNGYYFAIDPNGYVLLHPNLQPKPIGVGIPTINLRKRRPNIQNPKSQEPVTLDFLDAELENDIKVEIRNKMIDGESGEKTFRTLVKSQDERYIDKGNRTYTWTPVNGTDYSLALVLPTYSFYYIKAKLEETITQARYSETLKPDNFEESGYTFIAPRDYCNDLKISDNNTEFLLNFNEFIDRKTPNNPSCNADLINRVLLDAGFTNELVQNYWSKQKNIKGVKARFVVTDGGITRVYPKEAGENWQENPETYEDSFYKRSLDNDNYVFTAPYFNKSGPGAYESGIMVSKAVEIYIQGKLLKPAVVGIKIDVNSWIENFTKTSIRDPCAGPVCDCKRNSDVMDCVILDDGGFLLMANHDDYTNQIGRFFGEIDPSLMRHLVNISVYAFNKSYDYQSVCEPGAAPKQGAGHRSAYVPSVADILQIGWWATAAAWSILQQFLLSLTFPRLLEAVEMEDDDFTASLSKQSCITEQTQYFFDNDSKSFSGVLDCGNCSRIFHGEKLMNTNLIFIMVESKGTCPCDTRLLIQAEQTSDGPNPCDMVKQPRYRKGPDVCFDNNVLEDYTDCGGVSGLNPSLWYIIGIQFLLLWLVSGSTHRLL

[7] = target: T3, α2δ-1 recombinant peptide (SEQ ID No. 5) containing the VGCC_α2 domain (Homo sapiens, UniProt P54289); settings: Langmuir 1:1 fit, single concentration data
T3 sequence (P54289 528-668): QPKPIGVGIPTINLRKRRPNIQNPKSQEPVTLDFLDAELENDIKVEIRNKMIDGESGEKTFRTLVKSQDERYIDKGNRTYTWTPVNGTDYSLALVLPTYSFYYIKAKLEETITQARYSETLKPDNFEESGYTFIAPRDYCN
Protocol: (§2) The equilibrium dissociation constant KD=kd/ka was calculated and provides a single concentration estimate of the compound target binding affinity.

[8] = target: T4, Peptide P3 (SEQ ID No. 6), carboxy terminal region of the VGGC_α2 domain of α2δ-1 (Homo sapiens, UniProt P54289); experiment: SPR binding to immobilized synthetic peptide P3; settings: RU400, subtracted from blank dextran reference; 0.5-2 mM
T4 construct: three glycines and a terminal cysteine (Peptide 3); made in house; host or cells: chemical synthesis
T4 sequence (P54289 with tags, fused parts or gaps limits assumed): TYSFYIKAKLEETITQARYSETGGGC
Source text: A synthetic peptide was constructed, representing the carboxy terminal of the VGGC_α2 domain of α2δ-1, carboxy-terminally fused to a flexible spacer consisting of three glycines and a terminal cysteine (Peptide 3; SEQ ID No. 6):
as §1, with “using the Biacore Thiol Coupling Kit” for “as described in Example 4”, “procedure. This strategy allows for uniform surface presentation of the immobilized peptide molecules and provides freedom to adopt a steric conformation determined by the amino acid sequence of the peptide.” for “procedure.”, “(see FIG. 13A).” for “(FIGS. 14A & 14B).”
Sensorgram running conditions were: • Compound stock solution: 50 mM, Dimethyl sulfoxide (DMSO) DMSO • Compound working dilution: 0.5-2 mM • Running buffer: HBS-P (Biacore) • Flow rate: 30 μl/min

[9] = target: T3, α2δ-1 recombinant peptide (SEQ ID No. 5) containing the VGCC_α2 domain; experiment: biochemical
Protocol: as §2

[10] = target: T5, α2δ-1 recombinant peptide (SEQ ID No. 5) comprising the VGCC_α2 domain (Homo sapiens, UniProt P54289); experiment: SPR binding to immobilized α2δ-1 recombinant peptide; settings: RU400, subtracted from BSA reference; 0.5-2 mM
T5 construct: purchased CUSABIO CSB-YP004407HU; host or cells: yeast
T5 sequence (P54289 528-668): as the sequence (P54289 528-668) above
Source text: The α2δ-1 recombinant peptide comprising the VGGC_α2 domain and containing a single cysteine near the carboxy terminus, was immobilized on the surface of a Biacore CM5 optical sensor chip using the Biacore Thiol Coupling Kit following the covalent thiol coupling chemistry. This immobilization process provides a sterically more uniform attachment of the ligand molecules to the sensor chip surface than the randomized amine coupling procedure. Bovine serum albumin (BSA) was immobilized to the reference flow cell FC1 as intra-assay background binding control. Compound NVA1309 was injected as analyte at increasing concentrations and the binding reaction was monitored by generation of real time sensorgrams, presented as subtracted curves from the BSA reference (see […]).
Sensorgram running conditions were: • Compound stock solution: 50 mM, Dimethyl sulfoxide (DMSO) DMSO • Compound working dilution: 0.5-2 mM • Running buffer: HBS-P • Flow rate: 30 μl/min

[11] = P4 RU400=100%, P4 scanning (Example 6)

Molecule	% BINDING (RU400) 0.5 mM ([1]; P4=100%, Example 7) [%]	% BINDING (RU400) 0.5 mM [1, 11] [%]	% BINDING (RU400) 1 mM ([1]; P4=100%, Example 7) [%]	% BINDING (RU400) 1 mM [1, 11] [%]	% BINDING (RU400) 2 mM ([1]; P4=100%, Example 7) [%]	% BINDING (RU400) 2 mM [1, 11] [%]	% BINDING (RU400) mean ([1]; P4=100%, Example 6) [%]	% BINDING (RU400) mean ([1]; P4=100%, Example 7) [%]	further results
IKAKLEETITQAGGGC (Peptide P4, carboxy-terminal VGGC_a2 region (II) + GGGC anchor) [carboxy-terminal VGGC_α2 region (II) + GGGC anchor, positive control]	100	100	100	100	100	100	100	100	
IKAKGGGC (Peptide P15, P4 analogue containing only the amino-terminal part of P4 + GGGC anchor)	19		25		26			23	
IKAKLEEAIAQAGGGC (Peptide P12, P4 analogue - polar side chains A-substituted + GGGC anchor)		14		15		17	15.3		
IAAALEETITQAGGGC (Peptide P10, P4 analogue - positively charged side chains A-substituted + GGGC anchor)		4		4		4	4		
IKAKLAATITQAGGGC (Peptide P11, P4 analogue - negatively charged side chains A-substituted + GGGC anchor)		23		22		25	23.3		
CC(C)C[C@H](CN)CC(=O)O [Pregabalin, reference compound]									SPR binding to immobilized construct 2 [2]: lack of pregabalin binding; SPR binding to immobilized construct 1 [3]: lack of pregabalin binding; ability to alleviate mechanical hypersensitivity (α2δ-1): lost; alleviating chronic pain resulting from nerve injury [4]: no longer effective; SPR binding to immobilized peptide P1 [5]: no positive SPR signal; IC50 ([6]; read-out: IC50 of binding; recombinant membranes over-expressing the human α2δ-1 subunit (PCT/EP2014/077937); cited from earlier work): 23 nM
ETITQARYSETLKPGGGC (Peptide P6, carboxy-terminal VGGC_a2 region (IV) + GGGC anchor) [C-terminal P4 extension + GGGC anchor]		9		7		9	8.3		NVA1309 binding to the peptide, in words [1]: significant loss of NVA1309 binding capacity
AQTITEELKAKIGGGC (Peptide P8, Inverse peptide P4 + GGGC anchor)		3		2		2	2.3		NVA1309 binding to the peptide, in words [1]: lack of binding
IKAALEETITQAGGGC (Peptide P14, P4 analogue with Lysine in position 4 (K) substituted by Alanine (A) + GGGC anchor) [P4 analogue, K4 A-substituted + GGGC anchor]	0		11		6			6	
LRVRIDDSLSNVGGGC (Peptide P9, P4 analogue - all aa substituted by most similar ones + GGGC anchor)		1		1		2	1.3		
IAAKLEETITQAGGGC (Peptide P13, P4 analogue with Lysine in position 2 (K) substituted by Alanine (A) + GGGC anchor) [P4 analogue, K2 A-substituted + GGGC anchor]	133		88		90			104	
CCC1=C[C@@H]2[C@H](C1)C[C@]2(CN)Cc1nnn[nH]1 [NVA1309, [(1R,5S,6S)-3-Ethyl-6-(1H-tetrazol-5-ylmethyl)-6-bicyclo[3.2.0]hept-3-enyl]methanamine]									SPR binding to immobilized construct 2 [2]: concentration-dependent binding; kd [7]: 0.00061 s⁻¹; SPR binding to immobilized peptide P3 [8]: concentration dependent binding; SPR binding to immobilized construct 1 [3]: concentration-dependent binding; Kd [9]: 33.8 nM; kon ([9]; read-out: ka): 18000 M⁻¹ s⁻¹; SPR binding to immobilized peptide P1 [5]: concentration-dependent binding; IC50 ([6]; recombinant membranes over-expressing the human α2δ-1 subunit (PCT/EP2014/077937); read-out: IC50 of binding; cited from earlier work): 2.1 nM; SPR binding to immobilized α2δ-1 recombinant peptide [10]: concentration-dependent binding
